# Source: paper PMC10600247, “Impact of C- and N-terminal protection on the stability, metal chelation and antimicrobial properties of calcitermin” (Scientific Reports, 2023)
# Residues, ends and D or L forms follow the SMILES beside them.
# What was measured:
# [1] = system: C. albicans (ATCC 10231); experiment: In vitro antifungal CFU assay; assay type: cell-based, Candida albicans; settings: pH 5.4; for mean CFU number ± S.D.: per 0.1 mL
# How it was run: (§1)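 Peptides (final 0.128, 0.064, 0.032 mg/mL), alone or with ZnCl2 or CuCl2 at M:L 0.9:1, were incubated with 10^3 CFU/well in PBS pH 5.4 plus 1.5% TSB at 37 °C with slow rocking for 3 and 24 h. Aliquots were plated on TSA and CFU counted after 24 h; triplicate.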
# [2] = system: E. coli (ATCC 25922); experiment: In vitro anti-E. coli CFU assay; assay type: cell-based, Escherichia coli; settings: pH 5.4; for mean CFU number ± S.D.: per 0.1 mL
# How it was run: as §1
# [3] = peptide 0.032 mg/mL + CuCl2 (0.9:1), 3 h
# [4] = peptide 0.032 mg/mL + CuCl2 (0.9:1), 24 h
# [5] = peptide 0.032 mg/mL + ZnCl2 (0.9:1), 3 h
# [6] = peptide 0.032 mg/mL + ZnCl2 (0.9:1), 24 h
# [7] = peptide 0.064 mg/mL + CuCl2 (0.9:1), 3 h
# [8] = peptide 0.064 mg/mL + CuCl2 (0.9:1), 24 h
# [9] = peptide 0.064 mg/mL + ZnCl2 (0.9:1), 3 h
# [10] = peptide 0.064 mg/mL + ZnCl2 (0.9:1), 24 h
# [11] = peptide 0.128 mg/mL + CuCl2 (0.9:1), 3 h
# [12] = peptide 0.128 mg/mL + CuCl2 (0.9:1), 24 h
# [13] = peptide 0.128 mg/mL + ZnCl2 (0.9:1), 3 h, listed as WT calcitermin
# [14] = peptide 0.128 mg/mL + ZnCl2 (0.9:1), 3 h
# [15] = peptide 0.128 mg/mL + ZnCl2 (0.9:1), 24 h
# [16] = peptide alone 0.032 mg/mL, 24 h
# [17] = peptide alone 0.064 mg/mL, 24 h
# [18] = peptide alone 0.128 mg/mL, 24 h
compound,measurement,setting,value
"CC[C@H](C)[C@H](NC(=O)[C@H](C)NC(=O)[C@@H](N)C(C)C)C(=O)N[C@@H](C)C(=O)N[C@@H](CC(C)C)C(=O)N[C@@H](CCCCN)C(=O)N[C@@H](C)C(=O)N[C@@H](C)C(=O)N[C@@H](Cc1c[nH]cn1)C(=O)N[C@@H](Cc1ccc(O)cc1)C(=O)N[C@@H](Cc1c[nH]cn1)C(=O)N[C@H](C(=O)N[C@@H](Cc1c[nH]cn1)C(=O)N[C@@H](CCCCN)C(=O)N[C@@H](CCC(=O)O)C(=O)O)[C@@H](C)O [WT, VAIALKAAHYHTHKE, reference compound] (H-VAIALKAAHYHTHKE-OH)",CFU decrease/increase with respect to untreated controls,[1]; [3],-12%
same,mean CFU number ± S.D.,[1]; [3],74 ± 28 CFU
same,CFU decrease/increase with respect to untreated controls,[1]; [4],-0.4%
same,mean CFU number ± S.D.,[1]; [4],"1,771 ± 309 CFU"
same,CFU decrease/increase with respect to untreated controls,[1]; [5],-20%
same,mean CFU number ± S.D.,[1]; [5],67 ± 35 CFU
same,CFU decrease/increase with respect to untreated controls,[1]; [6],-31%
same,mean CFU number ± S.D.,[1]; [6],"1,235.8 ± 235 CFU"
same,CFU decrease/increase with respect to untreated controls,[1]; [7],+1%
same,mean CFU number ± S.D.,[1]; [7],85 ± 24 CFU
same,CFU decrease/increase with respect to untreated controls,[1]; [8],-16%
same,mean CFU number ± S.D.,[1]; [8],"1,489 ± 111 CFU"
same,CFU decrease/increase with respect to untreated controls,[1]; [9],-43%
same,mean CFU number ± S.D.,[1]; [9],48.3 ± 22 CFU
same,CFU decrease/increase with respect to untreated controls,[1]; [10],-58%
same,mean CFU number ± S.D.,[1]; [10],754.3 ± 323 CFU
same,CFU decrease/increase with respect to untreated controls,[1]; [11],-35%
same,mean CFU number ± S.D.,[1]; [11],55 ± 11 CFU
same,CFU decrease/increase with respect to untreated controls,[1]; [12],-0.6%
same,mean CFU number ± S.D.,[1]; [12],"1,790 ± 393 CFU"
same,CFU decrease/increase with respect to untreated controls,[1]; [13],-49%
same,mean CFU number ± S.D.,[1]; [14],42.7 ± 11 CFU
same,CFU decrease/increase with respect to untreated controls,"[1]; peptide 0.128 mg/mL + ZnCl2 (0.9:1), 24 h, listed as WT calcitermin",-96%
same,mean CFU number ± S.D.,[1]; [15],62.8 ± 33 CFU
same,CFU decrease/increase with respect to untreated controls,"[1]; peptide alone 0.032 mg/mL, 3 h, listed as WT calcitermin",-67%
same,mean CFU number ± S.D.,"[1]; peptide alone 0.032 mg/mL, 3 h",28 ± 15 CFU
same,CFU decrease/increase with respect to untreated controls,[1]; [16],-24%
same,mean CFU number ± S.D.,[1]; [16],"1,348± 698 CFU"
same,CFU decrease/increase with respect to untreated controls,"[1]; peptide alone 0.064 mg/mL, 3 h, listed as WT calcitermin",-67%
same,mean CFU number ± S.D.,"[1]; peptide alone 0.064 mg/mL, 3 h",28 ± 15 CFU
same,CFU decrease/increase with respect to untreated controls,[1]; [17],-33%
same,mean CFU number ± S.D.,[1]; [17],"1,289 ± 495 CFU"
same,CFU decrease/increase with respect to untreated controls,"[1]; peptide alone 0.128 mg/mL, 3 h, listed as WT calcitermin",-73%
same,mean CFU number ± S.D.,"[1]; peptide alone 0.128 mg/mL, 3 h",22.4 ± 15 CFU
same,CFU decrease/increase with respect to untreated controls,[1]; [18],-41%
same,mean CFU number ± S.D.,[1]; [18],"1,052 ± 531 CFU"
same,CFU decrease/increase with respect to untreated controls,"[2]; peptide 0.032 mg/mL + CuCl2 (0.9:1), 3 h, listed as WT calcitermin",-38%
same,mean CFU number ± S.D.,[2]; [3],505 ± 26 CFU
same,CFU decrease/increase with respect to untreated controls,[2]; [4],-21%
same,mean CFU number ± S.D.,[2]; [4],191 ± 23 CFU
same,CFU decrease/increase with respect to untreated controls,"[2]; peptide 0.032 mg/mL + ZnCl2 (0.9:1), 3 h, listed as WT calcitermin",-38%
same,mean CFU number ± S.D.,[2]; [5],499 ± 104 CFU
same,CFU decrease/increase with respect to untreated controls,[2]; [6],-7%
same,mean CFU number ± S.D.,[2]; [6],224 ± 8 CFU
same,CFU decrease/increase with respect to untreated controls,"[2]; peptide 0.064 mg/mL + CuCl2 (0.9:1), 3 h, listed as WT calcitermin",-56%
same,mean CFU number ± S.D.,[2]; [7],360 ± 97 CFU
same,CFU decrease/increase with respect to untreated controls,[2]; [8],-11%
same,mean CFU number ± S.D.,[2]; [8],215 ± 17 CFU
same,CFU decrease/increase with respect to untreated controls,"[2]; peptide 0.064 mg/mL + ZnCl2 (0.9:1), 3 h, listed as WT calcitermin",-55%
same,mean CFU number ± S.D.,[2]; [9],368 ± 18 CFU
same,CFU decrease/increase with respect to untreated controls,[2]; [10],+3%
same,mean CFU number ± S.D.,[2]; [10],249 ± 9 CFU
same,CFU decrease/increase with respect to untreated controls,"[2]; peptide 0.128 mg/mL + CuCl2 (0.9:1), 3 h, listed as WT calcitermin",-91.1%
same,mean CFU number ± S.D.,[2]; [11],72 ± 44 CFU
same,CFU decrease/increase with respect to untreated controls,"[2]; peptide 0.128 mg/mL + CuCl2 (0.9:1), 24 h, listed as WT calcitermin",-82%
same,mean CFU number ± S.D.,[2]; [12],42 ± 12 CFU
same,CFU decrease/increase with respect to untreated controls,[2]; [13],-91%
same,mean CFU number ± S.D.,[2]; [14],74 ± 17 CFU
same,CFU decrease/increase with respect to untreated controls,[2]; [15],-8%
same,mean CFU number ± S.D.,[2]; [15],222 ± 16 CFU
same,CFU decrease/increase with respect to untreated controls,"[2]; peptide alone 0.032 mg/mL, 3 h",-12%
same,mean CFU number ± S.D.,"[2]; peptide alone 0.032 mg/mL, 3 h",718 ± 138 CFU
same,CFU decrease/increase with respect to untreated controls,[2]; [16],-7%
same,mean CFU number ± S.D.,[2]; [16],224 ± 21 CFU
same,CFU decrease/increase with respect to untreated controls,"[2]; peptide alone 0.064 mg/mL, 3 h",-19%
same,mean CFU number ± S.D.,"[2]; peptide alone 0.064 mg/mL, 3 h",659 ± 139 CFU
same,CFU decrease/increase with respect to untreated controls,[2]; [17],+14%
same,mean CFU number ± S.D.,[2]; [17],275 ± 16 CFU
same,CFU decrease/increase with respect to untreated controls,"[2]; peptide alone 0.128 mg/mL, 3 h",+42%
same,mean CFU number ± S.D.,"[2]; peptide alone 0.128 mg/mL, 3 h",1155 ± 270 CFU
same,CFU decrease/increase with respect to untreated controls,[2]; [18],-3%
same,mean CFU number ± S.D.,[2]; [18],233 ± 10 CFU
